Literature values, collected in patent publication US7195882B2, “Monoclonal antibodies specific for buprenorphine and metabolites thereof” (priority 2003, dated 2007).

Details: in vivo

Compound: CO[C@]12CC[C@@]3(C[C@@H]1[C@](C)(O)C(C)(C)C)[C@H]1Cc4ccc(O[C@@H]5O[C@H](C(=O)O)[C@@H](O)[C@H](O)[C@H]5O)c5c4[C@@]3(CCN1CC1CC1)[C@H]2O5 [buprenorphine glucuronide, buprenorphine 3-O-β-D-glucuronide]
- appearance in urine: 1 to 2 days
